Patent US12036215B2, “Antitumor agent and method for tumor therapy” (TAIHO PHARMACEUTICAL CO., LTD., priority 2018, dated 2024)

Assays:
[1] = test system: small-cell lung cancer (SCLC); details: paclitaxel once per week; MLN8237 twice per day for 3 days, 4 days off; cited from earlier work
tumor = details: rats, 24 hours later MK-5108 orally twice per day for 2 days; cited from earlier work
[2] = test system: Human-derived uterus cancer cell line HeLa-luc; assay: Schedule study of combined use of compound I and paclitaxel in HeLa-luc grafted nude rats; type: in vivo; details: group 1: paclitaxel 10 mg/kg i.v. on day 1 alone; 5 rats
Source text: Human-derived uterus cancer cell line HeLa-luc (PerkinElmer, Inc.) cells transfected with luciferase gene were subcutaneously grafted at 1×10^7 cells to the right abdomens of nude rats (lineage: F344/NJcl-rnu/rnu, female, distributor: CLEA Japan, Inc.). When the volume of the grafted tumor reached approximately 200 mm^3, the rats were divided into groups each consisting of 5 rats according to stratified randomization such that each group had almost the same tumor volume.
To group 1, paclitaxel (10 mg/kg) alone was intravenously administered on day 1. To groups 2 to 5, paclitaxel was administered and, on the next day, the hydrochloride of the compound I (30 mg/kg, based on free form) obtained in Reference Example 1 was orally administered twice per day for 1 day, 2 days, 3 days or 4 days (Sequential treatment; see FIG. 1). […]
The presence or absence of a therapeutic effect was determined by measuring the major axis and minor axis of tumor with time and calculating a tumor volume (TV), relative tumor volume (RTV) and T/C (%) value (average relative tumor volume ratio of the treatment group to the control group) on day 10 after initiation of administration, according to the following formulas. […]

[3] = Phase 1 clinical dose escalation trial with paclitaxel: safety, dose-limiting toxicity; type: in vivo, human
Protocol: (§1) Paclitaxel and compound I in the form of hydrochloride were administered to cancer patients and evaluated for safety and efficacy. This study was conducted targeting solid cancer patients for whom a standard treatment is not effective, or a treatment is not present. Cancers found to affect the patients included the carcinoma shown in FIG. 3 (urothelial cancer, adrenal cancer, pancreatic cancer, colon cancer, cervical cancer, bile duct cancer, hepatocellular carcinoma, prostate cancer, head and neck cancer, ovarian cancer, gallbladder cancer, non-small cell lung cancer, parotid gland cancer, breast cancer, and fallopian tube cancer). This study also corresponds to a phase 1 clinical dose escalation trial for mainly evaluating safety and determining a recommended dose (RD), that can be administered safely without a concerned side effect in a phase 1 clinical expansion cohort test to be performed on a carcinoma basis.
(§2) A weekly administration regimen was adopted to paclitaxel, in which paclitaxel was administered once per week for 3 weeks, followed by cessation of the drug for 1 week. This administration method is a standard paclitaxel administration regimen and is widely used in clinical practice. On the other hand, the compound I was administered twice per day for 2 or 3 or 4 days from the same day as paclitaxel administration or 1 day after paclitaxel administration; this regimen was performed for 3 weeks together with the weekly paclitaxel administration; and week 4 was set to cessation of the compound I, in accordance with the cessation of paclitaxel. Each administration schedule (dose level) was evaluated from results of administration to 2 to 7 patients.

[4] = in vivo; cited from earlier work
solid cancer = assay: Phase 1 clinical dose escalation trial with paclitaxel: tumor reduction effect (RECIST); type: in vivo, human; details: for cases in which a tumor reduction effect was observed: equal dose per day
Protocol: as §1
In addition to the evaluation of safety, a therapeutic effect on tumor was also evaluated, if possible. The therapeutic effect on tumor was determined as a tumor reduction effect by comprehensive evaluation of target lesions (lesions equal to or larger than a measurable size according to a slice width by CT, etc.) and non-target lesions (all lesions other than the target lesions) with reference to the RECIST evaluation method (Journal of the National Cancer Institute, 2000, Vol 92, No. 3, 205-216J). The dose of the compound I is a weight based on free form.
In this study, PR (partial response) refers to 30% or more decrease in the sum of the major axis of target lesions, compared to that before administration. PD (progressive disease) refers to 20% or more relative increase in the sum of the major axis of target lesions, compared to the smallest sum of the major axis recorded after the start of the study, 5 mm or more absolute increase in the sum of the major axis, or apparent exacerbation of existing non-target lesions or a new lesion. SD (stable disease) refers to insufficient tumor reduction to qualify for PR and insufficient increase to qualify for PD, without progression and exacerbation of tumor, compared to the smallest sum of the major axis recorded after the start of the study.
as §2

Aurora A = biological target: T1, Aurora A (Homo sapiens, UniProt O14965); details: cited from earlier work
T1 sequence (O14965 1-403): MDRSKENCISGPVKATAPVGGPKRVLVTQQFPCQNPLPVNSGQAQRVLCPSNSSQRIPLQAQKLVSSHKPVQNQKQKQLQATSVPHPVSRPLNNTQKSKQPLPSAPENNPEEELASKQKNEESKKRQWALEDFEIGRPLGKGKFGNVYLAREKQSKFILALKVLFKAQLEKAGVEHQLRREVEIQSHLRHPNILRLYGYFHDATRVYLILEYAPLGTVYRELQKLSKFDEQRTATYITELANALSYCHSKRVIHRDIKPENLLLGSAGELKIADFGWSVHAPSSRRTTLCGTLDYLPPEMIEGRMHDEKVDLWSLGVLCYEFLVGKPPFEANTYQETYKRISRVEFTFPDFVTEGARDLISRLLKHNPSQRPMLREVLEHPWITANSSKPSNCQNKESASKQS

COc1cc(Nc2ncc3c(n2)-c2ccc(Cl)cc2C(c2c(F)cccc2OC)=NC3)ccc1C(=O)O [alisertib]
adverse events [1]: serious adverse events such as neutropenia was found
efficacy in combination with paclitaxel [1]: effective for small-cell lung cancer

O=C(O)[C@]1(Cc2cccc(Nc3nccs3)n2)CC[C@@H](Oc2cccc(Cl)c2F)CC1 [MK-5108]
effect on side effect of docetaxel (tumor): without exacerbating the side effect of docetaxel
effect on tumor reduction effect of docetaxel (tumor): tumor reduction effect of docetaxel is enhanced

CC(=O)O[C@H]1C(=O)[C@@]2(C)[C@H]([C@H](OC(=O)c3ccccc3)[C@]3(O)C[C@H](OC(=O)[C@H](O)[C@@H](NC(=O)c4ccccc4)c4ccccc4)C(C)=C1C3(C)C)[C@]1(OC(C)=O)CO[C@@H]1C[C@@H]2O [paclitaxel]
number of CR (complete remission) cases [2]: no CR cases were observed

Cc1cc(Nc2nc(CC3(C(=O)O)CCN(C(=O)c4cccc(Cl)c4Cl)CC3)ccc2F)n[nH]1 [compound I, 1-(2,3-dichlorobenzoyl)-4-[5-fluoro-6-(5-methyl-1H-pyrazol-3-ylamino)pyridin-2-yl]methyl-4-piperidinecarboxylic acid]
patients with dose-limiting toxicity (DLT) ([3]; DL1: paclitaxel 90 mg/m^2/day weekly, compound I 25 mg/dose twice per day for 4 days from same day as paclitaxel, 3 weeks): two out of three
tolerability determination of the dose level ([3]; DL1: paclitaxel 90 mg/m^2/day, compound I 25 mg/dose twice per day for 4 days): exceed the maximum tolerable dose
tolerability determination of the dose level ([3]; DL2: paclitaxel 70 mg/m^2/day, compound I for 2 days): tolerable
patients with dose-limiting toxicity (DLT) ([3]; DL2: paclitaxel 70 mg/m^2/day, compound I for 2 days from 1 day after paclitaxel): not observed in any of three cases
tolerability determination of the dose level ([3]; DL6: paclitaxel 80 mg/m^2/day, compound I 75 mg per dose twice per day for 3 days): most suitable as the maximally tolerated dose
patients with grade 3 or higher dose-limiting toxicity ([3]; DL6: paclitaxel 80 mg/m^2/day, compound I 75 mg per dose twice per day for 3 days from day following paclitaxel): not observed in any of seven cases
tolerability determination of the dose level ([3]; DL7: paclitaxel 80 mg/m^2/day, compound I 100 mg per dose twice per day for 3 days): exceed the maximum tolerable dose
patients with dose-limiting toxicity (DLT) ([3]; DL7: paclitaxel 80 mg/m^2/day, compound I 100 mg per dose twice per day for 3 days from day following paclitaxel): two out of three
tolerability ([3]; compound I 2 consecutive days, 75 mg per dose, total 300 mg per week, with paclitaxel): tolerable without the dose-limiting toxicity
oral absorbability [4]: excellent in oral absorbability
patients in which a tumor reduction effect was observed (solid cancer; 2 on 5 off schedule, 6 out of 12 patients, with paclitaxel): 50%
cases that had PR (solid cancer; 2 on 5 off schedule, one out of 12 cases, with paclitaxel): 8.3%
cases that manifested PR (solid cancer; 3 on 4 off schedule (dose levels 6 and 7), 3 out of 8 cases, with paclitaxel): 38%
patients in which a tumor reduction effect was observed (solid cancer; 3 on 4 off schedule, 7 out of 8 patients, with paclitaxel): 88%
number of patients with PR (partial response) (solid cancer; all dose levels, 22 evaluable cases, combination with paclitaxel): 5
cases in which a tumor reduction effect was observed (solid cancer; 2 on 5 off (dose level 5), 1 out of 3 cases, with paclitaxel): 33%
cases in which a tumor reduction effect was observed (solid cancer; 3 on 4 off (dose level 6), 4 out of 5 cases, with paclitaxel): 80%
Aurora A selective inhibitory activity (Aurora A): excellent
